# Assays:
# Type in all cases: cell-based
# [1] = test system: PRMT5 (SDMA) in HAP1 MTAP-intact cell line; test: SDMA in-cell western assay, HAP1 MTAP-intact cell line; conditions: Homo sapiens, HAP1 MTAP-intact cell line (endogenous MTAP), read-out: Hap 1 MTAP intact IC50
# Source text: (§1) HAP1 MTAP-intact is a cell line in which endogenous levels of MTAP are expressed, and HAP1 MTAP-deleted is an MTAP-null cell line.
# [2] = test system: HAP1 MTAP-deleted cell line; test: viability assay for the MTAP-deleted cell line; conditions: Homo sapiens
# [3] = test system: PRMT5 (SDMA) in HAP1 MTAP-deleted cell line; test: SDMA in-cell western assay, HAP1 MTAP-deleted cell line; conditions: for IC50 / IC90: Homo sapiens, SDMA in-cell western, HAP1 MTAP-deleted (MTAP-null) cell line; for Hap1 MTAP intact/deleted ratio: ratio of SDMA in-cell western IC50 in HAP1 MTAP-intact to IC50 in HAP1 MTAP-deleted cell line
# Source text: as §1
IC50 [1],IC50 [3],IC90 [3],Compound,IC50 [2],Hap1 MTAP intact/deleted ratio [3]
> 50 nM,> 50 nM,> 125 nM,"C[C@H]1CN(C(=O)C(=O)Nc2cnc(N)c(C3CC3)c2)[C@H](c2ccc(F)cc2)CN1C(=O)OC(C)(C)C (stereo in doubt) [Compound 146, tert-butyl 4-(2-((6-amino-5-cyclopropylpyridin-3-yl)amino)-2-oxoacetyl)-5-(4-fluorophenyl)-2-methylpiperazine-1-carboxylate]",> 1000 nM,C (an IC50 ratio of less than 15 fold)
> 50 nM,< 5 nM,> 125 nM,"C[C@@H]1CN(C(=O)C(=O)Nc2cnc(N)c(C3CC3)c2)[C@@H](c2ccc(F)cc2)CN1C(=O)OC(C)(C)C (stereo in doubt) [Compound 148, tert-butyl 4-(2-((6-amino-5-cyclopropylpyridin-3-yl)amino)-2-oxoacetyl)-5-(4-fluorophenyl)-2-methylpiperazine-1-carboxylate]",< 100 nM,A (an IC50 ratio greater than or equal to 30 fold)
> 50 nM,< 5 nM,< 75 nM,"CC(C)OC(=O)N1C[C@@H](c2ccc(F)cc2)N(C(=O)C(=O)Nc2cnc(N)c(C3CC3)c2)C[C@@H]1C (stereo in doubt) [Compound 151, isopropyl 4-(2-((6-amino-5-cyclopropylpyridin-3-yl)amino)-2-oxoacetyl)-5-(4-fluorophenyl)-2-methylpiperazine-1-carboxylate]",< 100 nM,B (an IC50 ratio greater than or equal to 15 fold but lower than 30 fold)
> 50 nM,5 to 50 nM,75 to 125 nM,CCc1cc(NC(=O)C(=O)N2CCN(C(=O)C3(C(F)(F)F)CC3)[C@@H](C)[C@@H]2c2ccc(F)cc2)cnc1N [Compound 1],< 100 nM,A (an IC50 ratio greater than or equal to 30 fold)
> 50 nM,< 5 nM,< 75 nM,"C[C@@H]1CN(C(=O)C(=O)Nc2cnc(N)c(C3COC3)c2)[C@@H](c2ccc(F)cc2)CN1C(=O)OC(C)(C)C [Compound 2, (2R,5S)-tert-butyl 4-(2-((6-amino-5-(oxetan-3-yl)pyridin-3-yl)amino)-2-oxoacetyl)-5-(4-fluorophenyl)-2-methylpiperazine-1-carboxylate]",< 100 nM,C (an IC50 ratio of less than 15 fold)
> 50 nM,5 to 50 nM,75 to 125 nM,C[C@H]1CN(C(=O)C(=O)Nc2cnc(N)c(C3CC3)c2)[C@H](c2ccc(F)cc2)CN1C(=O)CC1CC1 [Compound 6],< 100 nM,B (an IC50 ratio greater than or equal to 15 fold but lower than 30 fold)
5 to 50 nM,< 5 nM,< 75 nM,"C[C@@H]1CN(C(=O)C(=O)Nc2cnc(N)c(C3CC3)c2)[C@@H](c2ccc(F)cc2)CN1C(=O)C1(C)CC1 [Compound 8, N-(6-amino-5-cyclopropylpyridin-3-yl)-2-((2S,5R)-2-(4-fluorophenyl)-5-methyl-4-(1-methylcyclopropanecarbonyl)piperazin-1-yl)-2-oxoacetamide]",< 100 nM,C (an IC50 ratio of less than 15 fold)
5 to 50 nM,< 5 nM,< 75 nM,"Cc1cc(NC(=O)C(=O)N2C[C@@H](C)N(C(=O)C(C)C)C[C@@H]2c2ccc(N3CCN(C)CC3)cc2)cnc1N [Compound 11, N-(6-amino-5-methylpyridin-3-yl)-2-((2S,5R)-4-isobutyryl-5-methyl-2-(4-(4-methylpiperazin-1-yl)phenyl)piperazin-1-yl)-2-oxoacetamide]",< 100 nM,C (an IC50 ratio of less than 15 fold)
> 50 nM,< 5 nM,< 75 nM,"C[C@@H]1CN(C(=O)C(=O)Nc2cnc(N)c(C3CC3)c2)[C@@H](c2ccc(F)c(Cl)c2)CN1C(=O)C1(C(F)(F)F)CC1 [Compound 14, N-(6-amino-5-cyclopropylpyridin-3-yl)-2-((2S,5R)-2-(3-chloro-4-fluorophenyl)-5-methyl-4-(1-(trifluoromethyl)cyclopropanecarbonyl)piperazin-1-yl)-2-oxoacetamide]",< 100 nM,C (an IC50 ratio of less than 15 fold)
> 50 nM,5 to 50 nM,75 to 125 nM,C[C@@H]1CN(C(=O)C(=O)Nc2cnc(N)c(C3CC3)c2)[C@@H](c2ccc(F)c(F)c2)CN1C(=O)C1(C(F)(F)F)CC1 [Compound 22],< 100 nM,B (an IC50 ratio greater than or equal to 15 fold but lower than 30 fold)
> 50 nM,< 5 nM,< 75 nM,"CC(C)C(=O)N1C[C@H](c2ccc(F)c(Cl)c2)N(C(=O)C(=O)Nc2cnc(N)c(C3CC3)c2)C[C@H]1C [Compound 24, N-(6-amino-5-cyclopropylpyridin-3-yl)-2-((2S,5R)-2-(3-chloro-4-fluorophenyl)-4-isobutyryl-5-methylpiperazin-1-yl)-2-oxoacetamide]",< 100 nM,B (an IC50 ratio greater than or equal to 15 fold but lower than 30 fold)
> 50 nM,< 5 nM,< 75 nM,"Cc1cc(NC(=O)C(=O)N2C[C@@H](C)N(C(=O)C3(C(F)(F)F)CC3)C[C@@H]2c2ccc(F)c(Cl)c2)cnc1N [Compound 29, N-(6-amino-5-methylpyridin-3-yl)-2-((2S,5R)-2-(3-chloro-4-fluorophenyl)-5-methyl-4-(1-(trifluoromethyl)cyclopropanecarbonyl)piperazin-1-yl)-2-oxoacetamide]",< 100 nM,B (an IC50 ratio greater than or equal to 15 fold but lower than 30 fold)

# The remaining lines, values behind:
Compound,IC50 [1],IC50 [3],IC90 [3],IC50 [2],Hap1 MTAP intact/deleted ratio [3]
"Cc1cc(NC(=O)C(=O)N2C[C@@H](C)N(C(=O)C(C)(C)C)C[C@@H]2c2cccc(N3CCN(C)CC3)c2)cnc1N [Compound 7, N-(6-amino-5-methylpyridin-3-yl)-2-((2S,5R)-5-methyl-2-(3-(4-methylpiperazin-1-yl)phenyl)-4-pivaloylpiperazin-1-yl)-2-oxoacetamide]",< 5 nM,< 5 nM,< 75 nM,< 100 nM,C (an IC50 ratio of less than 15 fold)
"C[C@@H]1CN(C(=O)C(=O)Nc2cncc3cn[nH]c23)[C@@H](c2cccc(Cl)c2)CN1C(=O)C(C)(C)C [Compound 9, 2-((2S,5R)-2-(3-chlorophenyl)-5-methyl-4-pivaloylpiperazin-1-yl)-2-oxo-N-(1H-pyrazolo[4,3-c]pyridin-7-yl)acetamide]",> 50 nM,5 to 50 nM,> 125 nM,100 to 1000 nM,B (an IC50 ratio greater than or equal to 15 fold but lower than 30 fold)
"COc1ncc(NC(=O)C(=O)N2C[C@@H](C)N(C(=O)C(C)C)C[C@@H]2c2cccc(N3CCN(C)CC3)c2)cc1C(N)=O [Compound 10, 5-(2-((2S,5R)-4-isobutyryl-5-methyl-2-(3-(4-methylpiperazin-1-yl)phenyl)piperazin-1-yl)-2-oxoacetamido)-2-methoxynicotinamide]",> 50 nM,5 to 50 nM,> 125 nM,100 to 1000 nM,C (an IC50 ratio of less than 15 fold)
"COc1ncc(NC(=O)C(=O)N2C[C@@H](C)N(C(=O)C(C)C)C[C@@H]2c2ccc(F)c(Cl)c2)cc1C(N)=O [Compound 12, 5-(2-((2S,5R)-2-(3-chloro-4-fluorophenyl)-4-isobutyryl-5-methylpiperazin-1-yl)-2-oxoacetamido)-2-methoxynicotinamide]",> 50 nM,5 to 50 nM,> 125 nM,100 to 1000 nM,A (an IC50 ratio greater than or equal to 30 fold)
Cc1cc(NC(=O)C(=O)N2C[C@@H](C)N(C(=O)C(C)(C)CN(C)C)C[C@@H]2c2ccccc2)cnc1N [Compound 13],> 50 nM,5 to 50 nM,< 75 nM,< 100 nM,C (an IC50 ratio of less than 15 fold)
CC(C)CN1C[C@H](c2ccccc2)N(C(=O)C(=O)Nc2cnc(N)c3cn[nH]c23)C[C@H]1C [Compound 16],5 to 50 nM,< 5 nM,< 75 nM,< 100 nM,A (an IC50 ratio greater than or equal to 30 fold)
C[C@@H]1CN(C(=O)C(=O)Nc2cnc(N)c3cn[nH]c23)[C@@H](c2cccc(Cl)c2)CN1C [Compound 18],> 50 nM,< 5 nM,< 75 nM,< 100 nM,A (an IC50 ratio greater than or equal to 30 fold)
Cc1cc(NC(=O)C(=O)N2C[C@@H](C)N(C(=O)OC(C)(C)C)C[C@@H]2c2ccc(F)c(F)c2)cnc1N [Compound 21],> 50 nM,5 to 50 nM,75 to 125 nM,100 to 1000 nM,C (an IC50 ratio of less than 15 fold)
Cc1cc(NC(=O)C(=O)N2C[C@@H](C)N(C(=O)OC(C)(C)C)C[C@@H]2c2ccccc2)cnc1N [Compound 25],5 to 50 nM,< 5 nM,< 75 nM,< 100 nM,C (an IC50 ratio of less than 15 fold)
Cc1cc(NC(=O)C(=O)N2C[C@@H](C)N(C(=O)C(C)(C)N(C)C)C[C@@H]2c2ccccc2)cnc1N [Compound 28],> 50 nM,5 to 50 nM,75 to 125 nM,< 100 nM,B (an IC50 ratio greater than or equal to 15 fold but lower than 30 fold)

# — US20250282749A1 (Tango Therapeutics, Inc., priority 2022, published 2025)
